{"source": "patent US7727995B2", "about": "“Antiherpes drug combinations” (University of Massachusetts, priority 2003, dated 2010)", "key": {"HSV2": {"tested_on": "HSV2", "settings": "mice, cited from earlier work"}, "McKrae strain of HSV-1": {"tested_on": "McKrae strain of HSV-1", "assay": "Inhibition of HSV encephalitis in mice, HSV-1 infection", "assay_type": "in vivo", "description": "(§1) BALB/c female mice at 6 weeks of age were anesthetized, their corneas lightly scratched with a 27-gauge needle, and 3 μl of infectious virus (McKrae strain of HSV-1 or G strain of HSV-2; 5×10^5 PFU) was placed on each cornea. At the time of infection, groups of ten animals were given 0.1 ml injections i.p. of vehicle (corn oil) or test drug or drug combination (e.g., HBPG or foscarnet or both) in vehicle at indicated concentrations, and the animals were returned to their cages and allowed to recover from anesthesia. Treatment was repeated by a regimen optimal for the drug combination and dose. Animals were observed daily for 30 days, and the day of death of each animal was recorded."}, "G strain of HSV-2": {"tested_on": "G strain of HSV-2", "assay": "Inhibition of HSV encephalitis in mice, HSV-2 infection", "assay_type": "in vivo", "description": "as §1"}, "HSV1 [1]": {"tested_on": "HSV1", "settings": "cited from earlier work"}, "HSV1 [2]": {"tested_on": "HSV1", "settings": "cited from earlier work", "remark": "listed apart in the source"}, "HSV1 [3]": {"tested_on": "HSV1", "settings": "150 μM; trigeminal ganglia of HSV1 latent mice on Vero cells; cited from earlier work"}, "[4]": {"settings": "HSV1, 100 mg/kg ip twice daily, 5 days, observed 30 days"}, "[5]": {"settings": "HSV1, 200 mg/kg ip twice daily, 5 days"}, "[6]": {"settings": "HSV1, 400 mg/kg ip twice daily, 5 days"}, "[7]": {"settings": "HSV2, 100 mg/kg ip twice daily, 5 days"}, "[8]": {"settings": "HSV2, 200 mg/kg ip twice daily, 5 days"}, "[9]": {"settings": "HSV2, 400 mg/kg ip twice daily, 5 days"}, "[10]": {"settings": "Table 2, HSV2, 50 mg/kg ip, bid, 5 d"}, "[11]": {"settings": "Table 2, HSV2, 100 mg/kg ip, bid, 5 d"}, "[12]": {"settings": "HSV1, 25 mg/kg ip in corn oil, twice daily for five days"}, "[13]": {"settings": "HSV1, 50 mg/kg ip in corn oil, twice daily for five days"}, "[14]": {"settings": "Table 5, HSV1, 100 mg/kg ip in corn oil, twice daily for five days"}, "[15]": {"settings": "HSV1, 1 mg/kg ip in corn oil, twice daily for five days"}, "[16]": {"settings": "HSV1, 2.5 mg/kg ip in corn oil, twice daily for five days"}, "[17]": {"settings": "HSV1, 5 mg/kg ip in corn oil, twice daily for five days"}, "[18]": {"settings": "HSV2, 1 mg/kg ip in corn oil, twice daily for five days"}, "[19]": {"settings": "HSV2, 2.5 mg/kg ip in corn oil, twice daily for five days"}, "[20]": {"settings": "HSV2, 5 mg/kg ip in corn oil, twice daily for five days"}}, "note": "Like-named read-outs stand apart in the source and are kept apart here. Marks after values point to notes of the source that are not given here."}
{"smiles": "O=c1[nH]c(Nc2ccccc2)nc2c1ncn2CCCCO", "note": "[HBPG, 2-phenylamino-6-oxo-9-(4-hydroxybutyl)purine]", "values": [{"measurement": "amount of viral DNA in the relevant nerve ganglia", "setting": "HSV2; HSV2", "result": "reduce the amount of viral DNA"}, {"measurement": "frequency of hyperthermia-induced HSV2 reactivation", "setting": "HSV2", "result": "reduce the frequency"}, {"measurement": "Survivors/treated", "setting": "McKrae strain of HSV-1; [4]", "result": "1/10"}, {"measurement": "Survivors/treated", "setting": "McKrae strain of HSV-1; [5]", "result": "6/10*"}, {"measurement": "Survivors/treated (%)", "setting": "McKrae strain of HSV-1; [5]", "result": "(60%)"}, {"measurement": "Survivors/treated", "setting": "McKrae strain of HSV-1; [6]", "result": "9/10*"}, {"measurement": "Survivors/treated (%)", "setting": "McKrae strain of HSV-1; [6]", "result": "(90%)"}, {"measurement": "efficacy of HBPG alone", "setting": "McKrae strain of HSV-1; HSV1, 25 or 50 mg/kg HBPG alone", "result": "no efficacy"}, {"measurement": "Survivors/treated", "setting": "G strain of HSV-2; [7]", "result": "3/10"}, {"measurement": "Survivors/treated (%)", "setting": "G strain of HSV-2; [7]", "result": "(30%)"}, {"measurement": "Survivors/treated", "setting": "G strain of HSV-2; [8]", "result": "10/10*"}, {"measurement": "Survivors/treated (%)", "setting": "G strain of HSV-2; [8]", "result": "(100%)"}, {"measurement": "Survivors/treated", "setting": "G strain of HSV-2; [9]", "result": "9/10*"}, {"measurement": "Survivors/treated (%)", "setting": "G strain of HSV-2; [9]", "result": "(90%)"}, {"measurement": "efficacy of HBPG alone", "setting": "G strain of HSV-2; HSV2, 25 or 50 mg/kg HBPG alone", "result": "no efficacy"}, {"measurement": "Survivors/treated", "setting": "G strain of HSV-2; [10]", "result": "1/10"}, {"measurement": "Survivors/treated (%)", "setting": "G strain of HSV-2; [10]", "result": "(10%)"}, {"measurement": "Survivors/treated", "setting": "G strain of HSV-2; [11]", "result": "3/10"}, {"measurement": "Survivors/treated (%)", "setting": "G strain of HSV-2; [11]", "result": "(30) %"}, {"measurement": "preventing recurrence of ocular HSV1 disease", "setting": "HSV1 [1]; squirrel monkey model of latent HSV1 infection", "result": "clear efficacy"}, {"measurement": "frequency of recurrent ocular HSV1 disease", "setting": "HSV1 [1]; squirrel monkeys", "result": "reduce the frequency"}, {"measurement": "amount of viral DNA in the relevant nerve ganglia", "setting": "HSV1 [2]; mice, HSV1", "result": "reduce the amount of viral DNA"}, {"measurement": "frequency of hyperthermia-induced HSV1 reactivation", "setting": "HSV1 [2]; mice", "result": "reduce the frequency"}, {"measurement": "preventing recurrence of ocular HSV1 disease", "setting": "HSV1 [2]; mouse model of latent HSV1 infection", "result": "clear efficacy"}]}
{"smiles": "O=c1[nH]c(Nc2ccccc2)nc2c1ncn2[C@H]1C[C@H](O)[C@@H](CO)O1", "note": "[PhdG, N^2-phenyl-2′-deoxyguanosine]", "values": [{"measurement": "number of ganglia producing virus compared to control ganglia", "setting": "HSV1 [3]", "result": "significantly reduced"}]}
{"smiles": "Nc1nc2c(ncn2COCCO)c(=O)[nH]1", "note": "[acyclovir]", "values": [{"measurement": "Survivors/treated", "setting": "McKrae strain of HSV-1; [12]", "result": "1/10"}, {"measurement": "Survivors/treated (%)", "setting": "McKrae strain of HSV-1; [12]", "result": 10, "unit": "%"}, {"measurement": "Survivors/treated", "setting": "McKrae strain of HSV-1; [13]", "result": "3/10"}, {"measurement": "Survivors/treated (%)", "setting": "McKrae strain of HSV-1; [13]", "result": 30, "unit": "%"}, {"measurement": "Survivors/treated", "setting": "McKrae strain of HSV-1; [14]", "result": "7/10"}, {"measurement": "Survivors/treated (%)", "setting": "McKrae strain of HSV-1; [14]", "result": 70, "unit": "%"}]}
{"smiles": "Nc1ccn(C[C@@H](CO)OCP(=O)(O)O)c(=O)n1", "note": "[cidofovir]", "values": [{"measurement": "Survivors/treated", "setting": "McKrae strain of HSV-1; [15]", "result": "0/10"}, {"measurement": "Survivors/treated (%)", "setting": "McKrae strain of HSV-1; [15]", "result": 0, "unit": "%"}, {"measurement": "Survivors/treated", "setting": "McKrae strain of HSV-1; [16]", "result": "3/10"}, {"measurement": "Survivors/treated (%)", "setting": "McKrae strain of HSV-1; [16]", "result": 30, "unit": "%"}, {"measurement": "Survivors/treated", "setting": "McKrae strain of HSV-1; [17]", "result": "9/10"}, {"measurement": "Survivors/treated (%)", "setting": "McKrae strain of HSV-1; [17]", "result": 90, "unit": "%"}, {"measurement": "median effective dose", "setting": "McKrae strain of HSV-1; HSV1 encephalitis, ip twice daily for five days", "result": "2.5 to 5", "unit": "mg/kg"}, {"measurement": "Survivors/treated", "setting": "G strain of HSV-2; [18]", "result": "0/10"}, {"measurement": "Survivors/treated (%)", "setting": "G strain of HSV-2; [18]", "result": 0, "unit": "%"}, {"measurement": "Survivors/treated", "setting": "G strain of HSV-2; [19]", "result": "4/10"}, {"measurement": "Survivors/treated (%)", "setting": "G strain of HSV-2; [19]", "result": 40, "unit": "%"}, {"measurement": "Survivors/treated", "setting": "G strain of HSV-2; [20]", "result": "10/10"}, {"measurement": "Survivors/treated (%)", "setting": "G strain of HSV-2; [20]", "result": 100, "unit": "%"}, {"measurement": "median effective dose", "setting": "G strain of HSV-2; HSV2 encephalitis, ip twice daily for five days", "result": "2.5 to 5", "unit": "mg/kg"}]}
{"smiles": "O=C(O)P(=O)(O)O", "note": "[foscarnet, phosphonoformate]", "values": [{"measurement": "Survivors/treated (%)", "setting": "McKrae strain of HSV-1; HSV1, 100 mg/kg ip twice daily, 5 days", "result": "(10%)"}, {"measurement": "Survivors/treated", "setting": "McKrae strain of HSV-1; [4]", "result": "1/10"}, {"measurement": "Survivors/treated (%)", "setting": "McKrae strain of HSV-1; [5]", "result": "(50%)"}, {"measurement": "Survivors/treated (%)", "setting": "McKrae strain of HSV-1; [6]", "result": "(70%)"}, {"measurement": "Survivors/treated", "setting": "G strain of HSV-2; [7]", "result": "0/10"}, {"measurement": "Survivors/treated (%)", "setting": "G strain of HSV-2; [7]", "result": "(0%)"}, {"measurement": "Survivors/treated (%)", "setting": "G strain of HSV-2; [8]", "result": "(40%)"}, {"measurement": "Survivors/treated (%)", "setting": "G strain of HSV-2; [9]", "result": "(60%)"}, {"measurement": "Survivors/treated", "setting": "G strain of HSV-2; [10]", "result": "0/10"}, {"measurement": "Survivors/treated (%)", "setting": "G strain of HSV-2; [10]", "result": "(0%)"}]}
{"smiles": "O=c1[nH]c(Nc2cccc(C(F)(F)F)c2)nc2nc[nH]c12", "note": "[m-CF3PG, N^2-(m-trifluoromethylphenyl)guanine]", "values": [{"measurement": "number of ganglia producing virus compared to control ganglia", "setting": "HSV1 [3]", "result": "significantly reduced"}]}
